Patent publication US12503475B2 (Centessa Pharmaceuticals (UK) Limited, priority 2020, dated 2025)
Like-named read-outs stand apart in the source and are kept apart here.

Target: T1, human orexin type 2 receptor (hOX2R) (Homo sapiens, UniProt O43614)
T1 construct: expressed in transfected cells
T1 sequence (O43614 1-444): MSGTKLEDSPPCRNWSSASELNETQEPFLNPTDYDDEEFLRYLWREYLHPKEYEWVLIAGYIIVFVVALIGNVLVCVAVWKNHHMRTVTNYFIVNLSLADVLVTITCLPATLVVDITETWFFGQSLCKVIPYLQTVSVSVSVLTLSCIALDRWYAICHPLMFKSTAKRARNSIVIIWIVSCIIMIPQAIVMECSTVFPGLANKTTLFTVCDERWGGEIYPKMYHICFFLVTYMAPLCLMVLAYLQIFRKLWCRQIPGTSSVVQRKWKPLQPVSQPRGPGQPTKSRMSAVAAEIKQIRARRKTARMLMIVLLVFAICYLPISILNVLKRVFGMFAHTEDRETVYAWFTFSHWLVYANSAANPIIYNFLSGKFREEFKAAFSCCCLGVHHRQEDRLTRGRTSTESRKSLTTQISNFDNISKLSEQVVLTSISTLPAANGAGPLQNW
Assay: Measurement of orexin type 2 receptor agonist activity (FLIPR calcium fluorescence)
Type: cell-based
Conditions: for EC50: read-out: hOx2 pEC50 (converted); for Emax: CHO, read-out: hOx2 Emax (%)
Summary of the method: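 Agonism was read as fluorescence in cells stably expressing human OX2R. E. is the response at 10 μM relative to orexin A as full agonist (100%).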

[1] = CHO cells expressing hOX2R, FLIPR calcium fluorescence

Row | EC50 [1] [nM] | Emax [1] [%] | Structure (SMILES) | Emax [%]
1 | 0.0794 to 1 | 90 to 100 | C[C@@H](F)C(=O)N1CC2(CC2)[C@H](NS(=O)(=O)C(F)F)[C@@H]1Cc1cccc(-c2cc(F)cc(F)c2)c1F [Compound 378, 1,1-difluoro-N-((6S,7S)-5-((R)-2-fluoropropanoyl)-6-((2,3′,5′-trifluoro-[1,1′-biphenyl]-3-yl)methyl)-5-azaspiro[2.4]heptan-7-yl)methanesulfonamide] | –
2 | 10 to 100 | 90 to 100 | CS(=O)(=O)N[C@@H]1[C@H](Cc2cccc(-c3ccccc3)c2)N(C(=O)C2(C#N)CCO2)CC12CC2 (stereo partly drawn) [Compound 47, N-((6S,7S)-6-([1,1′-biphenyl]-3-ylmethyl)-5-(2-cyanooxetane-2-carbonyl)-5-azaspiro[2.4]heptan-7-yl)methanesulfonamide] | –
3 | 0.0794 to 1 | 90 to 100 | CS(=O)(=O)NC1C(Cc2cccc(-c3ccccc3)c2F)N(C(=O)C2(O)CCC2)CC12CC2 (racemic) [Compound 50, N-(6-((2-fluoro-[1,1′-biphenyl]-3-yl)methyl)-5-(1-hydroxycyclobutane-1-carbonyl)-5-azaspiro[2.4]heptan-7-yl)methanesulfonamide] | –
4 | 0.0794 to 1 | 90 to 100 | CS(=O)(=O)NC1C(Cc2cccc(-c3cc(F)cc(F)c3)c2F)N(C(=O)C2CCC2)CC12CC2 (racemic) [Compound 29, N-(5-(cyclobutanecarbonyl)-6-((2,3′,5′-trifluoro-[1,1′-biphenyl]-3-yl)methyl)-5-azaspiro[2.4]heptan-7-yl)methanesulfonamide] | –
5 | 1 to 10 | 90 to 100 | CS(=O)(=O)N[C@@H]1[C@H](Cc2cccc(-c3ccccc3)c2F)N(C(=O)NCCCF)CC12CC2 [Compound 79, (6S,7S)-6-((2-fluoro-[1,1′-biphenyl]-3-yl)methyl)-N-(3-fluoropropyl)-7-(methylsulfonamido)-5-azaspiro[2.4]heptane-5-carboxamide] | –
6 | 0.0794 to 1 | 90 to 100 | CS(=O)(=O)NC1C(Cc2cccc(-c3cc(F)cc(F)c3)c2F)N(C(=O)N2CCC2)CC12CC2 (racemic) [Compound 30, N-(5-(azetidine-1-carbonyl)-6-((2,3′,5′-trifluoro-[1,1′-biphenyl]-3-yl)methyl)-5-azaspiro[2.4]heptan-7-yl)methanesulfonamide] | –
7 | 0.0794 to 1 | 90 to 100 | CCNC(=O)N1CC2(CC2)[C@H](NS(=O)(=O)N(C)C)[C@@H]1Cc1cccc(-c2ccccc2)c1F [Compound 121] | –
8 | 0.0794 to 1 | 90 to 100 | O=C([C@H]1CCO1)N1CC2(CC2)[C@H](NS(=O)(=O)CF)[C@@H]1Cc1cccc(-c2ccccc2)c1F [Compound 93, 1-fluoro-N-((6S,7S)-6-((2-fluoro-[1,1′-biphenyl]-3-yl)methyl)-5-((R)-oxetane-2-carbonyl)-5-azaspiro[2.4]heptan-7-yl)methanesulfonamide] | –
9 | 10 to 100 | 90 to 100 | C[C@H]1C[C@@H]1S(=O)(=O)N[C@H]1[C@@H](Cc2cccc(-c3ccccc3)c2)N(C(=O)[C@H]2CCO2)CC12CC2 (relative stereo) [Compound 312, (1S*,2S*)-N-(6R,7R)-6-([1,1′-biphenyl]-3-ylmethyl)-5-((R)-oxetane-2-carbonyl)-5-azaspiro[2.4]heptan-7-yl)-2-methylcyclopropane-1-sulfonamide] | –
10 | 0.0794 to 1 | 90 to 100 | CS(=O)(=O)N[C@@H]1[C@H](Cc2cccc(-c3ccccc3)c2F)N(C(=O)NCC(F)F)CC12CC2 [Compound 112, (6S,7S)-N-(2,2-difluoroethyl)-6-((2-fluoro-[1,1′-biphenyl]-3-yl)methyl)-7-(methylsulfonamido)-5-azaspiro[2.4]heptane-5-carboxamide] | –
11 | 0.0794 to 1 | 90 to 100 | C[C@H](CO)NC(=O)N1CC2(CC2)[C@H](NS(=O)(=O)C(F)F)[C@@H]1Cc1cccc(-c2ccccc2)c1F [Compound 364, (6S,7S)-7-((difluoromethyl)sulfonamido)-6-((2-fluoro-[1,1′-biphenyl]-3-yl)methyl)-N-((R)-1-hydroxypropan-2-yl)-5-azaspiro[2.4]heptane-5-carboxamide] | –
12 | 1 to 10 | 90 to 100 | CC(C)(O)C(=O)N1CC2(CC2)[C@H](NS(C)(=O)=O)[C@@H]1Cc1cccc(-c2cc(F)cc(F)c2)c1F [Compound 34, N-((6S,7S)-5-(2-hydroxy-2-methylpropanoyl)-6-((2,3′,5′-trifluoro-[1,1′-biphenyl]-3-yl)methyl)-5-azaspiro[2.4]heptan-7-yl)methanesulfonamide] | –
13 | 1 to 10 | 70 to 80 | CC(F)(F)C(=O)N1CC2(CC2)[C@H](NS(=O)(=O)CF)[C@@H]1Cc1cccc(-c2cccc(F)c2)c1F [Compound 179, N-((6S,7S)-6-((2,3′-difluoro-[1,1′-biphenyl]-3-yl)methyl)-5-(2,2-difluoropropanoyl)-5-azaspiro[2.4]heptan-7-yl)-1-fluoromethanesulfonamide] | –
14 | 1 to 10 | 90 to 100 | O=C([C@H](O)CF)N1CC2(CC2)[C@H](NS(=O)(=O)C(F)F)[C@@H]1Cc1cc(F)cc(-c2ccccc2)c1F [Compound 390, N-((6S,7S)-6-((2,5-difluoro-[1,1′-biphenyl]-3-yl)methyl)-5-((S)-3-fluoro-2-hydroxypropanoyl)-5-azaspiro[2.4]heptan-7-yl)-1,1-difluoromethanesulfonamide] | –
15 | 1 to 10 | 90 to 100 | CC1CN(C(=O)N2CC3(CC3)C(NS(C)(=O)=O)C2Cc2cccc(-c3ccccc3)c2)C1 (racemic) [Compound 57, N-(6-([1,1′-biphenyl]-3-ylmethyl)-5-(3-methylazetidine-1-carbonyl)-5-azaspiro[2.4]heptan-7-yl)methanesulfonamide] | –
16 | 0.0794 to 1 | 90 to 100 | C[C@H](F)C(=O)N1CC2(CC2)[C@H](NS(=O)(=O)C(F)F)[C@@H]1Cc1cccc(-c2ccccc2)c1F [Compound 160, 1,1-difluoro-N-((6S,7S)-6-((2-fluoro-[1,1′-biphenyl]-3-yl)methyl)-5-((S)-2-fluoropropanoyl)-5-azaspiro[2.4]heptan-7-yl)methanesulfonamide] | –
17 | 10 to 100 | 90 to 100 | CS(=O)(=O)N[C@@H]1[C@H](Cc2cccc(-c3ccccc3)c2F)N(C(=O)NC2CC(F)(F)C2)CC12CC2 [Compound 83, (6S,7S)-N-(3,3-difluorocyclobutyl)-6-((2-fluoro-[1,1′-biphenyl]-3-yl)methyl)-7-(methylsulfonamido)-5-azaspiro[2.4]heptane-5-carboxamide] | –
18 | 0.0794 to 1 | 90 to 100 | CN(CC(F)F)C(=O)N1CC2(CC2)[C@H](NS(C)(=O)=O)[C@@H]1Cc1cccc(-c2ccccc2)c1F [Compound 81, (6S,7S)-N-(2,2-difluoroethyl)-6-((2-fluoro-[1,1′-biphenyl]-3-yl)methyl)-N-methyl-7-(methylsulfonamido)-5-azaspiro[2.4]heptane-5-carboxamide] | –
19 | 0.0794 to 1 | 90 to 100 | CC(C)S(=O)(=O)N[C@@H]1[C@H](Cc2cc(F)cc(-c3cc(F)cc(F)c3)c2F)N(C(=O)[C@H]2CCO2)CC12CC2 [Compound 395, N-((6S,7S)-5-((R)-oxetane-2-carbonyl)-6-((2,3′,5,5′-tetrafluoro-[1,1′-biphenyl]-3-yl)methyl)-5-azaspiro[2.4]heptan-7-yl)propane-2-sulfonamide] | –
20 | 10 to 100 | 90 to 100 | CS(=O)(=O)N[C@@H]1[C@H](Cc2cccc(-c3ccccc3)c2F)N(C(=O)[C@H](O)C(F)F)CC12CC2 [Compound 351, N-((6S,7S)-5-((S)-3,3-difluoro-2-hydroxypropanoyl)-6-((2-fluoro-[1,1′-biphenyl]-3-yl)methyl)-5-azaspiro[2.4]heptan-7-yl)methanesulfonamide] | –
21 | 1 to 10 | 90 to 100 | CS(=O)(=O)NC1C(Cc2cccc(-c3ccccc3)c2F)N(C(=O)N2CCC2)CC12CC2 (racemic) [Compound 18, N-(5-(azetidine-1-carbonyl)-6-((2-fluoro-[1,1′-biphenyl]-3-yl)methyl)-5-azaspiro[2.4]heptan-7-yl)methanesulfonamide] | –
22 | 1 to 10 | 90 to 100 | CO[C@@H](C)CN(C)C(=O)N1CC2(CC2)[C@H](NS(C)(=O)=O)[C@@H]1Cc1cccc(-c2ccccc2)c1F [Compound 316] | –
23 | 0.0794 to 1 | 90 to 100 | [2H]C([2H])([2H])c1cccc(-c2cccc(C[C@H]3[C@@H](NS(=O)(=O)CF)C4(CC4)CN3C(=O)[C@H]3CCO3)c2F)c1 [Compound 229, 1-fluoro-N-((6S,7S)-6-((2-fluoro-3′-(methyl-d3)-[1,1′-biphenyl]-3-yl)methyl)-5-((R)-oxetane-2-carbonyl)-5-azaspiro[2.4]heptan-7-yl)methanesulfonamide] | –

Row | Structure (SMILES) | EC50 [1] [nM] | Emax [1] [%] | Emax [%]
24 | CN(C)S(=O)(=O)N[C@@H]1[C@H](Cc2cccc(-c3ccccc3)c2F)N(C(=O)N2CCC2)CC12CC2 [Compound 116, N-((6S,7S)-5-(azetidine-1-carbonyl)-6-((2-fluoro-[1,1′-biphenyl]-3-yl)methyl)-5-azaspiro[2.4]heptan-7-yl)-N,N-dimethylsulfuric diamide] | 0.0794 to 1 | – | 90 to 100
25 | O=C([C@H]1CCO1)N1CC2(CC2)[C@H](NS(=O)(=O)C(F)F)[C@@H]1Cc1cccc(-c2ccccc2)c1 [Compound 115, N-((6S,7S)-6-([1,1′-biphenyl]-3-ylmethyl)-5-((R)-oxetane-2-carbonyl)-5-azaspiro[2.4]heptan-7-yl)-1,1-difluoromethanesulfonamide] | 1 to 10 | – | 90 to 100
